According to PMC8793051 (ACS Omega, 2022):

Experiments:
[1] = test system: oligo-2: d(CGATGTACATCG)2; assay: UV thermal denaturation; type: binding
[2] = test system: oligo-1: d(CGCGAATTCGCG)2; assay: Fluorescence titration; type: binding; settings: 20 °C, pH 7.2
[3] = test system: oligo-2: d(CGATGTACATCG)2; assay: Fluorescence titration; type: binding; settings: 20 °C, pH 7.2
HEK = assay: MTT cytotoxicity assay; type: cell-based; settings: Homo sapiens, HEK293, 48 h
NIH3T3 = assay: MTT cytotoxicity assay; type: cell-based; settings: Mus musculus, NIH3T3, 48 h
CCRF-CEM = assay: NCI-60 SRB growth assay; type: cell-based, human
SR = assay: NCI-60 SRB growth assay; type: cell-based, human
HOP-62 = assay: NCI-60 SRB growth assay; type: cell-based, human; settings: HOP-62
HOP-92 = assay: NCI-60 SRB growth assay; type: cell-based, human
NCI-H226 = assay: NCI-60 SRB growth assay; type: cell-based, human
NCI-H23 = assay: NCI-60 SRB growth assay; type: cell-based, human
NCI-H460 = assay: NCI-60 SRB growth assay; type: cell-based, human
NCI-H522 = assay: NCI-60 SRB growth assay; type: cell-based, human
HCC-2998 = assay: NCI-60 SRB growth assay; type: cell-based, human
HT29 = assay: NCI-60 SRB growth assay; type: cell-based, human
KM12 = assay: NCI-60 SRB growth assay; type: cell-based, human
SW-620 = assay: NCI-60 SRB growth assay; type: cell-based, human; settings: Homo sapiens
SF-268 = assay: NCI-60 SRB growth assay; type: cell-based, human
SF-295 = assay: NCI-60 SRB growth assay; type: cell-based, human
U251 = assay: NCI-60 SRB growth assay; type: cell-based, human
SK-MEL-28 = assay: NCI-60 SRB growth assay; type: cell-based, human
UACC-257 = assay: NCI-60 SRB growth assay; type: cell-based, human
IGROV1 = assay: NCI-60 SRB growth assay; type: cell-based, human
OVCAR-5 = assay: NCI-60 SRB growth assay; type: cell-based, human
786-0 = assay: NCI-60 SRB growth assay; type: cell-based, human
A498 = assay: NCI-60 SRB growth assay; type: cell-based, human
ACHN = assay: NCI-60 SRB growth assay; type: cell-based, human
CAKI-1 = assay: NCI-60 SRB growth assay; type: cell-based, human
SN12C = assay: NCI-60 SRB growth assay; type: cell-based, human
PC-3 = assay: NCI-60 SRB growth assay; type: cell-based, human
BT-549 = assay: NCI-60 SRB growth assay; type: cell-based, human; settings: BT-549
T-47D = assay: NCI-60 SRB growth assay; type: cell-based, human
MDA-MB-468 = assay: NCI-60 SRB growth assay; type: cell-based, human; settings: MDA-MB-468
[4] = test system: panel of 60 human cancer cell lines; assay: cells; settings: read-out: GI50 concentration range

Structure (SMILES): CCCCN1CCN(c2ccc3[nH]c(-c4ccc5[nH]c(-c6ccc(C(F)(F)F)cc6)nc5c4)nc3c2)CC1 [12b, 5-(5-(4-Butylpiperazin-1-yl)-1H-benzo[d]imidazol-2-yl)2(4(trifluoromethyl)phenyl)-1H-benzo[d]imidazole]
- ΔTm ([1]; r = 0.5): 1 °C
- Tm ([1]; r = 0.5, oligo 2.5 μM): 57.9 °C
- Tm ([1]; r = 1): 58.9 °C
- ΔTm ([1]; r = 1): 2 °C
- Tm ([1]; r = 1.5): 58.9 °C
- ΔTm ([1]; r = 1.5): 2 °C
- Tm ([1]; r = 2.0): 59.9 °C
- ΔTm ([1]; r = 2.0): 3 °C
- Ka binding affinity with oligo-1 [2]: 1 × 10^7 M^–1
- Ka binding affinity with oligo-2 [3]: 2 × 10^6 M^1
- IC50 (HEK): 2700 nM
- IC50 (NIH3T3): 3.2 µM
- TGI (CCRF-CEM): 1.03 µM
- GI50 (CCRF-CEM; Homo sapiens): 300 nM
- CC50 (CCRF-CEM; Homo sapiens, read-out: LC50): 5.04 µM
- TGI (SR): 0.65 µM
- GI50 (SR; Homo sapiens): 260 nM
- TGI (HOP-62): 3.05 µM
- GI50 (HOP-62; Homo sapiens): 1300 nM
- TGI (HOP-92; HOP-92): 2.78 µM
- GI50 (HOP-92; Homo sapiens, HOP-92): 1180 nM
- CC50 (HOP-92; Homo sapiens, HOP-92, read-out: LC50): 6.5 µM
- GI50 (NCI-H226; Homo sapiens, NCI-H226): 1570 nM
- TGI (NCI-H226; NCI–H226): 3.59 µM
- GI50 (NCI-H23; Homo sapiens, NCI-H23): 1650 nM
- CC50 (NCI-H23; Homo sapiens, NCI-H23, read-out: LC50): 6.8 µM
- TGI (NCI-H23; NCI–H23): 3.36 µM
- GI50 (NCI-H460; Homo sapiens, NCI-H460): 230 nM
- CC50 (NCI-H460; Homo sapiens, NCI-H460, read-out: LC50): 1620 nM
- TGI (NCI-H460; NCI–H460): 0.5 µM
- GI50 (NCI-H522; Homo sapiens, NCI-H522): 1600 nM
- TGI (NCI-H522; NCI–H522): 3.6 µM
- TGI (HCC-2998; HCC-2998): 3.5 µM
- GI50 (HCC-2998; Homo sapiens, HCC 2998): 1800 nM
- CC50 (HCC-2998; Homo sapiens, HCC 2998, read-out: LC50): 6.6 µM
- TGI (HT29; HT29): 1.42 µM
- GI50 (HT29; Homo sapiens, HT-29): 340 nM
- GI50 (KM12; Homo sapiens, KM12): 670 nM
- CC50 (KM12; Homo sapiens, KM12, read-out: LC50): 4.9 µM
- TGI (KM12; KM12): 2.04 µM
- GI50 (SW-620; SW-620): 210 nM
- CC50 (SW-620; SW-620, read-out: LC50): 450 nM
- GI50 (SF-268; Homo sapiens, SF-268): 1700 nM
- CC50 (SF-268; Homo sapiens, SF-268, read-out: LC50): 6.4 µM
- TGI (SF-268; SF-268): 3.3 µM
- GI50 (SF-295; Homo sapiens, SF-295): 1340 nM
- CC50 (SF-295; Homo sapiens, SF-295, read-out: LC50): 5.4 µM
- TGI (SF-295; SF-265): 2.7 µM
- GI50 (U251; Homo sapiens, U-251): 240 nM
- TGI (U251; U251): 0.56 µM
- GI50 (SK-MEL-28; Homo sapiens, SK-MEL-28): 1700 nM
- CC50 (SK-MEL-28; Homo sapiens, SK-MEL-28, read-out: LC50): 5.9 µM
- TGI (SK-MEL-28; SK-MEL-28): 3.1 µM
- GI50 (UACC-257; Homo sapiens, UACC-257): 1700 nM
- CC50 (UACC-257; Homo sapiens, UACC-257, read-out: LC50): 7.2 µM
- TGI (UACC-257; UACC-257): 3.5 µM
- GI50 (IGROV1; Homo sapiens, IGROV-1): 1700 nM
- TGI (IGROV1; IGROV1): 3.4 µM
- GI50 (OVCAR-5; Homo sapiens, OVCAR-5): 1800 nM
- CC50 (OVCAR-5; Homo sapiens, OVCAR-5, read-out: LC50): 5.9 µM
- TGI (OVCAR-5; OVCAR-5): 3.5 µM
- TGI (786-0; 786–0): 3.04 µM
- GI50 (786-0; Homo sapiens, 786-0): 1470 nM
- TGI (A498; A498): 3.31 µM
- GI50 (A498; Homo sapiens, A498): 1690 nM
- CC50 (A498; Homo sapiens, A498, read-out: LC50): 6.49 µM
- TGI (ACHN): 2.6 µM
- GI50 (ACHN; Homo sapiens): 1320 nM
- CC50 (ACHN; Homo sapiens, read-out: LC50): 5.14 µM
- TGI (CAKI-1; CAKI-1): 2.58 µM
- GI50 (CAKI-1; Homo sapiens, CAKI-1): 1290 nM
- CC50 (CAKI-1; Homo sapiens, CAKI-1, read-out: LC50): 5.15 µM
- GI50 (SN12C; Homo sapiens, SN12C): 1540 nM
- TGI (SN12C; SN12c): 3.02 µM
- GI50 (PC-3; Homo sapiens, PC-3): 860 nM
- CC50 (PC-3; Homo sapiens, PC-3, read-out: LC50): 5.5 µM
- TGI (PC-3; PC-3): 2.31 µM
- TGI (BT-549): 3.15 µM
- GI50 (BT-549; Homo sapiens): 1620 nM
- GI50 (T-47D; Homo sapiens, T47D): 1240 nM
- TGI (T-47D; T-47D): 3.23 µM
- GI50 (MDA-MB-468; Homo sapiens): 1660 nM
- TGI (MDA-MB-468): 3.34 µM
- GI50 [4]: 160 to 3600 nM
